Assay in all cases: growth of human tumour cells (NCI), 48 h
In experiment [1] the test system is ACHN renal.
Experiment [2] relates to CAKI-1 renal.
The test system of experiment [3] is DU-145 prostate.
Experiment [4] relates to EKVX NSCLC.
Experiment [5] has as its system HL-60(TB) leukemia.
In experiment [6] the test system is IGROV1 ovarian.
Experiment [7] deals with LOX IMVI melanoma.
Experiment [8] concerns NCI-H23 lung.
The subject of experiment [9] is NCI-H460 lung.
In experiment [10] the test system is OVCAR-3 ovarian.
In experiment [11] the test system is OVCAR-4 ovarian.
Experiment [12] concerns OVCAR-8 ovarian.
Experiment [13] has as its system SF-268 CNS.
The subject of experiment [14] is SF-539 CNS.
In experiment [15] the test system is SK-MEL-2 melanoma.
The subject of experiment [16] is SK-MEL-28 melanoma.
Experiment [17] concerns SNB-75 CNS.
The subject of experiment [18] is UACC-257 melanoma.
Experiment [19] relates to UO-31 renal.

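Each compound was tested at five concentrations against cells in 96-well plates for 48 hours. Definition used: TGI = concentration required for complete inhibition of growth.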 Some results are limits rather than exact numbers.

`CCOP(=O)(CCCC(O)CNc1cc(Cl)nc(N)n1)OCC` (stereo not drawn): the TGI in experiment [1], in experiment [2], in experiment [3], in experiment [4], in [5] and in [6] was over 100 µM throughout. Besides, the TGI in experiment [7], in [8], in [9], in experiment [10], in experiment [11] and in [12] was over 100 µM throughout. Besides, the TGI in experiment [13], in [14], in experiment [15], in experiment [16], in experiment [17] and in experiment [18] was over 100 µM in each case. In addition, the TGI in experiment [19] is over 100 µM.

Regarding `CS/C1=C(\c2ccc(C)cc2)N(c2ccccc2)C(=O)C(=O)N(c2ccccc2)/C(c2ccc(C)cc2)=C(/SC)SS1`, the TGI in [1], in experiment [2], in experiment [3], in experiment [4], in [5] and in experiment [6] was over 100 µM in each case. The TGI in experiment [7], in experiment [8], in experiment [9], in [10], in experiment [11] and in [12] was over 100 µM in each case. The TGI in [13], in experiment [14], in experiment [15], in experiment [16], in [17] and in experiment [18] was over 100 µM each time. Further, the TGI in experiment [19] is over 100 µM.

Consider `O=C(CCc1ccccc1)ON1C(=S)NC(c2ccccc2)(c2ccccc2)C1=S`, for which the TGI is over 100 µM in experiment [1]; over 100 µM in [2]; over 100 µM in experiment [3]; over 100 µM in [4]; 61.2 µM in [5]; 82.7 µM in [6]. Besides, the TGI in [7] is 52.8 µM; in [8], 97.6 µM; in [9], over 100 µM; in [10], over 100 µM; in experiment [11], over 100 µM; in [12], over 100 µM. For the same compound, the TGI is over 100 µM in experiment [13]; over 100 µM in experiment [14]; 47.8 µM in experiment [15]; over 100 µM in [16]; over 100 µM in [17]; over 100 µM in experiment [18]. Moreover, in [19], the TGI was over 100 µM.

`CC(C)(C)C(=O)C(C(=O)C(C)(C)C)C(=O)C(C)(C)C`: the TGI in [1], in experiment [2], in [3], in experiment [4], in experiment [5] and in [6] was over 100 µM each time. The TGI in experiment [7], in experiment [8], in experiment [9], in experiment [10], in [11] and in [12] was over 100 µM each time. The TGI in experiment [13], in [14], in experiment [15], in experiment [16], in experiment [17] and in experiment [18] was over 100 µM each time. In [19], this compound showed a TGI of over 100 µM.

For the compound `Cc1nc(Nc2ccccc2Cl)sc1C(=O)CC(=O)C(=O)Nc1c(Cl)cccc1Cl`, the TGI in experiment [1] was over 100 µM; in [2], over 100 µM; in [3], over 100 µM; in experiment [4], 71.1 µM; in experiment [5], 33.6 µM; in experiment [6] it was 63.5 µM. In addition, the TGI in [7] is 85.8 µM; in experiment [8], over 100 µM; in experiment [9], over 100 µM; in [10], 57.8 µM; in experiment [11], over 100 µM; in experiment [12] it was 96.7 µM. The TGI in [13] was over 100 µM; in experiment [14], 83 µM; in [15], 56.2 µM; in [16] it was 85.6 µM; in experiment [17] it was 88.6 µM; in [18], over 100 µM. The same compound gave a TGI in [19] of 86.1 µM.

As for `COc1cc(CNc2ccc3nc4n(c(=O)c3c2)CCCCC4)cc(OC)c1OC`, the TGI in experiment [1], in experiment [2], in experiment [3], in experiment [4], in experiment [5] and in [6] was over 100 µM in each case. Moreover, the TGI in experiment [7], in experiment [8], in experiment [9], in experiment [10], in experiment [11] and in [12] was over 100 µM in each case. Also, the TGI in experiment [13] was over 100 µM; in experiment [14], over 100 µM; in experiment [15], over 100 µM; in [16], over 100 µM; in experiment [17], over 100 µM; in experiment [18] it was 75.8 µM. In [19], the TGI is over 100 µM.

In the case of `COc1c(C)c2c(c(=O)c3c(C)cccc3n2C)c2c1c(=O)c1c(C)cccc1n2C`, the TGI in experiment [1], in experiment [2], in experiment [3], in experiment [4], in experiment [5] and in [6] was over 10 µM each time. Further, the TGI in [7], in experiment [8], in [9], in [10], in experiment [11] and in experiment [12] was over 10 µM throughout. Besides, the TGI in [13], in experiment [14], in experiment [15], in experiment [16], in experiment [17] and in experiment [18] was over 10 µM throughout. In addition, the TGI in [19] is over 10 µM.

The values above are taken from PubChem BioAssay (NCI).
